Legend:
[1] = Photochromic response on optical bench of naphthopyrans imbibed into polymer test samples; format: physicochemical; conditions: homopolymer of diethylene glycol bis(allyl carbonate); for Δ OD at SATURATION: 150 watt Xenon lamp, about one sun, twenty minutes exposure; for Bleach Rate T1/2: values in sec.
Description: Naphthopyran compounds prepared in the above-described Examples were imbibed by thermal transfer into test samples of a homopolymer of diethylene glycol bis(allyl carbonate) by the following procedure. Each naphthopyran was dissolved into toluene solvent to form a 4% solution of the compound. A piece of No. 4 Whatman filter paper was saturated with the naphthopyran solution and allowed to air dry. The dried filter paper was placed on one side of the polymer test sample, which measured 1/8 inch (0.3 centimeter)×2 inch (5.1 centimeters)×2 inch (5.1 centimeters). A piece of untreated filter paper was placed on the other side of the polymer test sample and the resulting sandwich placed between two plates of flat aluminum metal plates. The entire assembly was then placed in a 155° C. oven for a time sufficient to thermally transfer the naphthopyran into the polymer test sample.
The imbibed test samples were removed from the oven, washed with acetone, and tested for photochromic response rates on an optical bench. The samples were illuminated by a 150 watt Xenon lamp fitted with a copper sulfate bath and neutral density filter at an intensity of about one sun. The optical density at saturation was determined at twenty minutes exposure.

[2] = Photochromic behaviour (coloring, bleaching) stated in words; format: physicochemical; conditions: for coloring on exposure to ultraviolet light: near ultraviolet; for bleaching / rate of fade in words: room temperature and above, or ambient temperature

Row | Compound | Δ OD at SATURATION [1] | Bleach Rate T1/2 [1] [min] | coloring on exposure to ultraviolet light [2] | bleaching / rate of fade in words [2]
1 | COc1ccc(C2(c3ccccc3)C=Cc3c(ccc4ccccc34)O2)cc1 (centres unmarked) [Comparative Example 2, 3-phenyl-3(4-methoxyphenyl)-3H-naphtho[2,1-b]pyran] | 0.25 | 0.583 | – | –
2 | FC(F)(F)c1ccc(C2(c3ccccc3)C=Cc3ccc4ccccc4c3O2)cc1 (centres unmarked) [Comparative Example 4, 3-phenyl-3(4-trifluoromethylphenyl)-2H-naphtho[1,2-b]pyran] | 1.63 | – | – | –
3 | COc1ccc(C2(c3ccc(OC)cc3C)C=Cc3c(ccc4ccccc34)O2)cc1 (centres unmarked) [Example 3, 3(2-methyl-4-methoxyphenyl)-3-(4methoxyphenyl)-3H-naphtho-[2,1-b]pyran] | 1.35 | 8.5 | – | –
4 | COc1ccc(C2(c3ccccc3C)C=Cc3c(ccc4ccccc34)O2)cc1 (centres unmarked) [Example 4, 3(2-methylphenyl)-3-(4-methoxyphenyl)-3H-naphtho[2,1-b]pyran] | 2.40 | 10 | – | –
5 | COc1ccc(C2(c3ccccc3)C=Cc3c(ccc4ccccc34)O2)c(OC)c1 (centres unmarked) [Example 5, 3-phenyl-3-(2,4-dimethoxyphenyl)-3H-naphtho[2,1-b]pyran] | 1.42 | 8.5 | – | –
6 | COc1ccc(C2(c3c(F)cccc3F)C=Cc3c(ccc4ccccc34)O2)cc1 (centres unmarked) [Example 6, 3(2,6-difluorophenyl)-3(4-methoxyphenyl)-3H-naphtho[2,1-b]pyran] | 2.23 | – | – | –
7 | C1=CC(c2ccccc2)(c2ccccc2)Oc2c1ccc1ccccc21 [a., 2,2diphenyl-2H naphthol[1,2b]pyran] | 1.37 | – | colors on exposure to near ultraviolet light at room temperature | does not bleach in a reasonable period of time
8 | C1=CC(c2ccccc2)(c2ccccc2)Oc2ccc3ccccc3c21 [compound 1, 3,3-diphenyl-3H-naphtho[2,1-b]pyran] | 0.36 | 0.75 | change color on exposure to the near ultraviolet | bleaches too rapidly for use in an ophthalmic lens
9 | COc1ccc(C2(c3ccc(C)cc3)C=Cc3c(ccc4ccccc34)O2)cc1 (centres unmarked) [compound 3, 3(4-methylphenyl)-3-(4-methoxyphenyl)-3H-naphtho[2,1-b]pyran] | 0.21 | 0.667 | – | –
10 | FC(F)(F)c1cccc(C2(c3cccc(C(F)(F)F)c3)C=Cc3ccc4ccccc4c3O2)c1 [compound 5, 3,3-di(3-trifluoromethyl)phenyl-2H-naphtho [1,2-b]pyran] | 1.07 | – | – | –
